The record followed here is paper PMC3014376 (Vaccine, 2010).

Residues, ends and D or L forms follow the SMILES beside them. Bounds are passed on as bounds.

The IC50 is the concentration that gives 50% inhibition.

Some targets named below: HLA-A*0206 (Homo sapiens, UniProt P04439, D140Y/D185E/D98H/E176V/E277Q/F33Y/G131W/G231S/I119V/I121R/I166T/I218V/L300P/L318F/N151K/N90K/P208A/P217A/Q86G/Q94H/R138H/R169H/T345S); HLA-A*6802 (Homo sapiens, UniProt P04439, A269V/D140Y/D185E/E176V/E277Q/E87N/F33Y/G231S/I121R/I166T/I218V/L180W/L300P/L318F/N151K/P208A/P217A/Q86R/R138H/R169H/S129P/T345S/V36M); HLA-A*0202 (Homo sapiens, UniProt P04439, D140Y/D185E/D98H/E176V/E277Q/G131W/G231S/I119L/I121R/I166T/I218V/L180W/L300P/L318F/N151K/N90K/P208A/P217A/Q67R/Q86G/Q94H/R138H/R169H/T345S).

Experiment in all cases: MHC-peptide binding assay

Turning to `CC[C@H](C)[C@H](NC(=O)[C@@H](NC(=O)[C@H](CC(C)C)NC(=O)[C@H](CC(C)C)NC(=O)[C@H](CO)NC(=O)[C@H](CC(C)C)NC(=O)[C@H](CO)NC(=O)[C@H](CC(C)C)NC(=O)[C@@H](N)Cc1ccccc1)C(C)C)C(=O)O` [SAG2C38–46] (H-FLSLSLLVI-OH), the IC50 on HLA-A*0206 is above 10 µM; on HLA-A*6802 it was 9.83 µM.

With `CC[C@H](C)[C@H](NC(=O)[C@H](CCSC)NC(=O)[C@@H](N)Cc1ccccc1)C(=O)N[C@@H](C)C(=O)N[C@@H](Cc1ccccc1)C(=O)N[C@H](C(=O)N[C@@H](CO)C(=O)N[C@@H](CS)C(=O)N[C@@H](Cc1ccccc1)C(=O)N[C@@H](C)C(=O)O)[C@@H](C)CC` [SAG2D180–189] (H-FMIAFISCFA-OH), the IC50 was found to be 0.056 µM at HLA-A*0202, 0.112 µM at HLA-A*0206 and 0.397 µM on HLA-A*6802.

Take `CC[C@H](C)[C@H](NC(=O)[C@@H](NC(=O)[C@@H](N)Cc1ccccc1)C(C)C)C(=O)N[C@@H](Cc1ccccc1)C(=O)N[C@@H](C)C(=O)N[C@@H](CS)C(=O)N[C@@H](CC(N)=O)C(=O)N[C@@H](Cc1ccccc1)C(=O)N[C@H](C(=O)O)C(C)C` [SAG2X44–52] (H-FVIFACNFV-OH): the IC50 on HLA-A*0206 was 0.0056 µM; at HLA-A*6802 it was 0.0012 µM.

For the compound `CC[C@H](C)[C@H](NC(=O)[C@H](CO)NC(=O)[C@@H](NC(=O)[C@@H](NC(=O)[C@H](CCSC)NC(=O)[C@@H](N)Cc1ccccc1)[C@@H](C)CC)C(C)C)C(=O)N[C@@H](CO)C(=O)N[C@@H](CC(C)C)C(=O)N[C@H](C(=O)O)C(C)C` [SAG2X351–359] (H-FMIVSISLV-OH), the IC50 stood at 0.0018 µM at HLA-A*0202, 0.0062 µM on HLA-A*0206 and 0.048 µM on HLA-A*6802.

On to `CC[C@H](C)[C@H](NC(=O)[C@H](Cc1ccc(O)cc1)NC(=O)[C@H](CC(=O)O)NC(=O)[C@@H](NC(=O)[C@H](CC(C)C)NC(=O)[C@@H](N)Cc1ccccc1)[C@@H](C)O)C(=O)N1CCC[C@H]1C(=O)NCC(=O)N[C@@H](C)C(=O)O` [SAG3_136–144] (H-FLTDYIPGA-OH), for which the figures for the IC50 at HLA-A*0202, on HLA-A*0206 and at HLA-A*6802 were 0.0071 µM, 0.0012 µM and 2.1 µM, respectively.

As for `CC(C)C[C@H](NC(=O)CNC(=O)[C@H](CC(C)C)NC(=O)[C@H](CC(C)C)NC(=O)[C@@H](N)Cc1ccccc1)C(=O)N[C@@H](CC(C)C)C(=O)N[C@H](C(=O)N[C@@H](Cc1c[nH]cn1)C(=O)N[C@H](C(=O)O)C(C)C)C(C)C` [SAG3_375–383] (H-FLLGLLVHV-OH), the IC50 on HLA-A*0202 stood at 0.037 µM; at HLA-A*0206, 0.0099 µM; at HLA-A*6802, 0.173 µM.

With `CC[C@H](C)[C@H](N)C(=O)N[C@H](C(=O)N[C@@H](CCSC)C(=O)NCC(=O)N[C@@H](CO)C(=O)N[C@@H](CC(C)C)C(=O)N[C@@H](Cc1ccccc1)C(=O)N[C@@H](Cc1ccccc1)C(=O)N[C@H](C(=O)O)C(C)C)[C@@H](C)O` [SPA12–20] (H-ITMGSLFFV-OH), the IC50 at HLA-A*0202 was found to be 0.00064 µM; at HLA-A*0206, 0.00026 µM; at HLA-A*6802, 0.0011 µM.

`CC(C)C[C@H](NC(=O)CN)C(=O)N[C@@H](C)C(=O)N[C@@H](C)C(=O)N[C@@H](C)C(=O)N[C@H](C(=O)N[C@H](C(=O)N[C@@H](C)C(=O)N[C@H](C(=O)O)C(C)C)C(C)C)C(C)C` [SPA82–90] (H-GLAAAVVAV-OH): the IC50 at HLA-A*0206 turned out to be 0.055 µM; at HLA-A*6802, 0.263 µM.
